Source: US8765786B2, “1-substituted indazole derivative” (Dainippon Sumitomo Pharma Co., Ltd., priority 2012, dated 2014)

Experiments:
human α7 nAChR = biological target: T1, human α7 nAChR (Homo sapiens, UniProt P36544); assay: Evaluation of PAM activity with human α7 nACh receptor stably expressing cells (aequorin luminescence, FDSS7000); format: cell-based; details: test compound 10 μmol/L, ACh added at EC20, ratio of RLU (Max-Min) of test wells to control wells; for activity at 10 µM: read-out: α7PAM (%) @ 10 μmol/L
T1 construct: expressed in transfected cells; host or cells: GH4C1 cells derived from rat pituitary (ATCC CCL-82.2)
Procedure, shortened: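 Rat pituitary GH4C1 cells stably expressing human α7 nAChR and aequorin, loaded 4 h at room temperature with 4 μmol/L substrate, in Hanks/20 mM HEPES pH 7.4. After compound then ACh addition, 465 nm luminescence recorded 138 s; PAM activity is RLU (Max-Min) ratio to control wells.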

[1] = biological target: T2, hERG (human ether-a-go-go) potassium current (Homo sapiens, UniProt Q12809); assay: hERG inhibition test (whole-cell patch clamp, QPatch HT, CHO cells); format: cell-based; details: room temperature
T2 construct: expressed in transfected cells; host or cells: CHO cells
Method: The hERG (human ether-a-go-go) potassium current in CHO cells which stably express hERG gene was recorded by whole-cell patch clamping technique using an automated patch clamp system, QPatch HT (Sophion Bioscience A/S). Inducing the hERG current, the membrane potential was held at −80 mV in voltage clamp mode, and then depolarized to −50 mV for 20 msec and then +20 mV for 5 sec. Then, the membrane potential was repolarized to −50 mV for 5 sec and the tail current amplitude was measured. The stimulation was given at a frequency of every 15 seconds, and the experiment was carried out at room temperature (22±2° C.) The compound was cumulatively administered to each cell in 4 concentrations, wherein the administration was done over 5 minutes in each concentration. The inhibition percentage of the inhibited current was calculated by comparing the current intensities before and after the compound was given in each concentration. According to Hill equation, each 50% inhibitory concentration was calculated (IC50 [μmol/L]). The test solutions used herein were as follows: extracellular solution (mmol/L): 2 CaCl2, 1 MgCl2, 10 HEPES, 4 KCl, 145 NaCl, 10 glucose,
intracellular solution (mmol/L): […], 1.8 MgCl2, 10 HEPES, 31 KOH, 10 EGTA, 120 KCl, 4 ATP

[2] = Measurement of brain penetration; format: in vivo; details: LC-MS/MS of plasma and brain homogenates
Description: The plasma and brain homogenates were deproteinized with methanol and then centrifuged. The supernatant was filtered, and the obtained sample was quantified with LC-MS/MS to calculate the concentration of the plasma and brain.

Slc: ddY mice = assay: Novel object recognition test in mice (mORT); format: in vivo
Method: Slc: ddY mice (25 g to 30 g, male, Japan SLC) can be used in the novel object recognition test wherein the interval between the 1st trial (training) and the 2nd trial (test) correlates with the memory loss for the objects used in the 1st trial, and a significant memory-loss is observed when the 2nd trial is performed 24 hours after the 1st trial. According to the test mechanism, the present compounds were administered prior to the 1st trial, and the enhancement effect on memory in the 2nd trial was evaluated.

T1 sequence (P36544 23-502): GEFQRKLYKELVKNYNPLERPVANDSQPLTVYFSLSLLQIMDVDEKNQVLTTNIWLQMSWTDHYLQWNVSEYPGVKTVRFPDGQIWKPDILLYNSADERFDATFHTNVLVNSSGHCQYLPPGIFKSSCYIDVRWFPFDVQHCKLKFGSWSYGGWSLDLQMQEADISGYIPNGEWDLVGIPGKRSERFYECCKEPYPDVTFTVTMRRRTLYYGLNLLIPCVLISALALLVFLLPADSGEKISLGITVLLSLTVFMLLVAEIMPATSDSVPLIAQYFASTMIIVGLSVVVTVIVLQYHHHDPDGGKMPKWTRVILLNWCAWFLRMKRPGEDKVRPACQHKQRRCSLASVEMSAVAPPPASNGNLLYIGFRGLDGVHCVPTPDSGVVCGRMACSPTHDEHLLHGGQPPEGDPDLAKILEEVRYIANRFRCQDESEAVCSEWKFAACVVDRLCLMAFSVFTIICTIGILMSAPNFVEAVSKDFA
T2 sequence (Q12809 whole entry): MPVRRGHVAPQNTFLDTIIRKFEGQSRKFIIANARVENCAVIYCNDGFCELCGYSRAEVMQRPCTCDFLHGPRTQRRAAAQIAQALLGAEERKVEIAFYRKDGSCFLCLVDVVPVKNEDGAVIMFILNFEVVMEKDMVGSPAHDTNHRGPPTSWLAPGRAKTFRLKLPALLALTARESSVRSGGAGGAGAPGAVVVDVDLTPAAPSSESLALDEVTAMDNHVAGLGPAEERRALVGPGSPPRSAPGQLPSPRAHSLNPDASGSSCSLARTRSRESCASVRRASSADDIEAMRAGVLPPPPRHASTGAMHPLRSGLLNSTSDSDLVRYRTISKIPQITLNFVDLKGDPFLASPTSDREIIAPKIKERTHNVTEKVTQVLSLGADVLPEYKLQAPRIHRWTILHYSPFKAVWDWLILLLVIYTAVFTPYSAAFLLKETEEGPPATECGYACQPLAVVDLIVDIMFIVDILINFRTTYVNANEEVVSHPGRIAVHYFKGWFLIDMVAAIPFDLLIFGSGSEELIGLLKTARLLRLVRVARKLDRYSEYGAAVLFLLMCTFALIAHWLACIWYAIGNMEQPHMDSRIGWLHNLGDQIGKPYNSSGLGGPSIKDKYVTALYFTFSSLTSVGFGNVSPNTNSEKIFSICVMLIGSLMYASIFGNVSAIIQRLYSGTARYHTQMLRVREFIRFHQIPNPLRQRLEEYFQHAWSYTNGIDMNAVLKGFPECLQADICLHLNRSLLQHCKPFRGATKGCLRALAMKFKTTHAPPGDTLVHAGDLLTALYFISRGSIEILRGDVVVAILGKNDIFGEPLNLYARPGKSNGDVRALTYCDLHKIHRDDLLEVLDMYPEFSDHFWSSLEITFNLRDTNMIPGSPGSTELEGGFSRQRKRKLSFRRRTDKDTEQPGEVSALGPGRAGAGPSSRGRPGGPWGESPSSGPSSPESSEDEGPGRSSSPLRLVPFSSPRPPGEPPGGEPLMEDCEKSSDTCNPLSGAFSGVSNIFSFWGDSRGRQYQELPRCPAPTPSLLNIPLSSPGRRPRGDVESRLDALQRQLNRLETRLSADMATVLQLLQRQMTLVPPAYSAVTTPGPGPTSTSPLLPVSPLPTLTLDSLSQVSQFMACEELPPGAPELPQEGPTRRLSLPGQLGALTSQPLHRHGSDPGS

SMILES | α7PAM (%) @ 10 μmol/L (human α7 nAChR) | also measured
COc1nn(C2CCN(C(=O)NC3CCCCC3)CC2)c2ccc(C)cc12 [Example 258] | 941% | IC50 [1]: 47.3 µM; concentration ratio of the brain to the plasma [2]: 1.55
CCc1cccc2c1cnn2C1CCN(C(=O)N[C@H]2CC[C@H](OC)CC2)CC1 [Example 66, 4-(4-ethyl-1H-indazol-1-yl)-N-(trans-4-methoxycyclohexyl)piperidine-1-carboxamide] |  | activity at 10 µM (human α7 nAChR): 466%; dose at which efficacy was shown (Slc: ddY mice): 1 mg/kg
O=C(NC1CC1)N1CCC(n2ncc3cc(C4CC4)ccc32)CC1 [Example 176] | 187% | 
CO[C@H]1CC[C@H](NC(=O)N2CCC(n3ncc4c(C)c(C)ccc43)CC2)CC1 [Example 225] | 480% | 
COCc1nn(C2CCN(C(=O)NC3CCCC3)CC2)c2ccc(C)cc12 [Example 67] | 436% | 
CCOc1c(CC)ccc2c1cnn2C1CCN(C(=O)N[C@H]2CC[C@H](OC)CC2)CC1 [Example 272, 4-(4-ethoxy-5-ethyl-1H-indazol-1-yl)-N-(trans-4-methoxycyclohexyl)piperidine-1-carboxamide] |  | activity at 10 µM (human α7 nAChR): 442%
O=C(C1CCOCC1)N1CCC(n2ncc3cc(C4CC4)ccc32)CC1 [Example 140] | 265% | 
O=C(NC1CCC(F)(F)CC1)N1CCC(n2ncc3c(OC(F)F)cccc32)CC1 [Example 201] | 370% | 
Cc1ccc2c(cnn2C2CCN(C(=O)C3CCCC3)CC2)c1 [Example 106] | 164% | 
COC1CCC(NC(=O)N2CCC(n3ncc4c(C5CC5)cccc43)CC2)CC1 (centres unmarked) [Example 37] | 481% | 
CC(C)c1ccc2c(cnn2C2CCN(C(=O)NC3CCOCC3)CC2)c1 [Example 14] | 728% | 
CCOc1ccc2c(cnn2C2CCN(C(=O)N[C@H]3CC[C@H](OC)CC3)CC2)c1C [Example 282] | 215% | 
CCOc1nn(C2CCN(C(=O)NC3CCOCC3)CC2)c2ccc(OC(F)(F)F)cc12 [Example 265] | 181% | 
COc1ccc2c(cnn2C2CCN(C(=O)NC3CCCC3(F)F)CC2)c1 (centres unmarked) [Example 87] | 514% | 
CO[C@H]1CC[C@H](NC(=O)N2CCC(n3ncc4c(C)c(C5CC5)ccc43)CC2)CC1 [Example 277, 4-(5-cyclopropyl-4-methyl-1H-indazol-1-yl)-N-(trans-4-methoxycyclohexyl)piperidine-1-carboxamide] |  | activity at 10 µM (human α7 nAChR): 729%
CC(C)Oc1ccc2c(cnn2C2CCN(C(=O)NC3CCCC3)CC2)c1 [Example 49] | 429% | 
COc1ccc(-c2ccc3c(cnn3C3CCN(C(=O)NC4CCC(F)(F)CC4)CC3)c2)cc1 [Example 156] | 358% | 
CCOCc1cccc2c1cnn2C1CCN(C(=O)NC2CCCCC2)CC1 [Example 167] | 434% | 
Cc1ccc2c(cnn2C2CCN(C(=O)NC3CCCC3)CC2)c1 [Example 7] | 1044% | 
[2H]C([2H])([2H])O[C@H]1CC[C@H](NC(=O)N2CCC(n3ncc4c(OC)c(CC)ccc43)CC2)CC1 [Example 318] | 1084% | 
CCOc1c(CC)ccc2c1cnn2C1CCN(C(=O)NC2CCC(F)(F)CC2)CC1 [Example 271] | 931% | 
COc1ccc2c(cnn2C2CCN(C(=O)N[C@H]3CC[C@H](OC)CC3)CC2)c1C [Example 279] | 185% | 
CCc1ccc2c(c1)c(OC(C)C)nn2C1CCN(C(=O)NC2CCC(OC)CC2)CC1 (centres unmarked) [Example 59] | 433% | 
COc1c(C2CC2)ccc2c1cnn2C1CCN(C(=O)N[C@H]2CC[C@H](OC)CC2)CC1 [Example 263, 4-(5-cyclopropyl-4-methoxy-1H-indazol-1-yl)-N-(trans-4-methoxycyclohexyl)piperidine-1-carboxamide] |  | activity at 10 µM (human α7 nAChR): 749%
CO[C@H]1CC[C@@H](NC(=O)N2CCC(n3ncc4c(C5CC5)cccc43)CC2)CC1 [Example 160] | 207% | 
CCOCc1ccc2c(cnn2C2CCN(C(=O)NC3CCC(F)(F)CC3)CC2)c1 [Example 207] | 335% | 
